Data published in patent US10690666B2, “Methods and compositions for modulating TH-GM cell function” (National University of Singapore, priority 2014, dated 2020).

Assays:
STAT5 [1] = assay: IL-7-induced STAT5 activation (Tyr694 phosphorylation) in CD4+ T cells, immunoblotting; assay type: cell-based, mouse; details: pre-incubated 1 h, IL-7 30 min
Description: (§1) FIGS. […] depict inhibition of STAT5 activation suppresses TH-GM cell differentiation in vitro. CD4^+ T cells were pre-incubated with STAT5 inhibitor (Calbiochem) (FIG. 22A) or JAK3 inhibitor (FIG. 22B) at indicated concentrations or vehicle (−) for 1 h before stimulation with IL-7 for 30 min. Activation (Tyr694 phosphorylation) of STAT5 was determined by immunoblotting. CD4^+ T cells were pre-incubated with STAT5 inhibitor at indicated concentrations or vehicle (−) for 1 h before stimulation with IL-6 for 30 min. Activation (Tyr705 phosphorylation) of STAT3 was determined by immunoblotting (FIG. 22C). In FIG. 22D, CD4^+ T cells were pre-incubated with STAT5 inhibitor at indicated concentrations or vehicle (−) for 1 h before stimulation with IFN-γ for 30 min. Activation (Tyr701 phosphorylation) of STAT1 was determined by immunoblotting. In FIG. 22E, naïve CD4^+ T cells were isolated and activated under neutral condition or TH-GM cell-favoring condition with the addition of different concentrations of STAT5 inhibitor for 3 days. GM-CSF and IFN-γ expression was analyzed by intracellular cytokine staining and flow cytometry.
(§2) The effect of disrupting STAT5 activation by chemical inhibitor was examined to explore possible methods of treating autoimmune neuroinflammation. The phosphorylation on the key tyrosine residue in SH2 domain is crucial for STAT5 activation and function. […]

STAT3 = target: T1, STAT3 (Mus musculus, UniProt P42227); assay: IL-6-induced STAT3 activation (Tyr705 phosphorylation) in CD4+ T cells, immunoblotting; assay type: cell-based; details: 50 or 100 μM; IL-6 30 min
T1 construct: endogenous in cells; host or cells: primary mouse CD4+ T cells (spleen and lymph nodes)
T1 sequence (P42227 whole entry): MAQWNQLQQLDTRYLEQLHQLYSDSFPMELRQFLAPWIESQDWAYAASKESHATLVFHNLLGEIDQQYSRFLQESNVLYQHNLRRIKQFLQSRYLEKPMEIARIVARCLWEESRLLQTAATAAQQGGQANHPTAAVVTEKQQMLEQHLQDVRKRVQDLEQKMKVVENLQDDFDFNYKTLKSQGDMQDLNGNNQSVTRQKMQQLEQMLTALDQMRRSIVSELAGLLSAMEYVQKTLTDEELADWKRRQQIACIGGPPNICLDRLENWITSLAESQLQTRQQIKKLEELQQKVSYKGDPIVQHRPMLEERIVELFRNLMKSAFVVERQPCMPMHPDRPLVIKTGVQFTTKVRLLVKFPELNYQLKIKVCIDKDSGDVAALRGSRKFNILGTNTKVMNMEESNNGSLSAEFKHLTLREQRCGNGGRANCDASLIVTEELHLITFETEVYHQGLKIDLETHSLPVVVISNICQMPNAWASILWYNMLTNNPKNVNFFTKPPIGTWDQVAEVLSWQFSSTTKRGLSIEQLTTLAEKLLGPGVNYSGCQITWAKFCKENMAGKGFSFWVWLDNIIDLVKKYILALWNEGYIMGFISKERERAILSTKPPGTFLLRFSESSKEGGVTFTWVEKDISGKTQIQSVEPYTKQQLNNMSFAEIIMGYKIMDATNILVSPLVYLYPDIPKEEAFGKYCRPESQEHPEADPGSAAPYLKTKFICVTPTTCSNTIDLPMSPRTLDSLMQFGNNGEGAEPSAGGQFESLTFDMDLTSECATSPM
Description: as §1, §2

STAT1 = target: T2, STAT1 (Mus musculus, UniProt P42225); assay: IFN-γ-induced STAT1 activation (Tyr701 phosphorylation) in CD4+ T cells, immunoblotting; assay type: cell-based; details: 50 or 100 μM; IFN-γ 30 min
T2 construct: endogenous in cells; host or cells: primary mouse CD4+ T cells (spleen and lymph nodes)
T2 sequence (P42225 1-749): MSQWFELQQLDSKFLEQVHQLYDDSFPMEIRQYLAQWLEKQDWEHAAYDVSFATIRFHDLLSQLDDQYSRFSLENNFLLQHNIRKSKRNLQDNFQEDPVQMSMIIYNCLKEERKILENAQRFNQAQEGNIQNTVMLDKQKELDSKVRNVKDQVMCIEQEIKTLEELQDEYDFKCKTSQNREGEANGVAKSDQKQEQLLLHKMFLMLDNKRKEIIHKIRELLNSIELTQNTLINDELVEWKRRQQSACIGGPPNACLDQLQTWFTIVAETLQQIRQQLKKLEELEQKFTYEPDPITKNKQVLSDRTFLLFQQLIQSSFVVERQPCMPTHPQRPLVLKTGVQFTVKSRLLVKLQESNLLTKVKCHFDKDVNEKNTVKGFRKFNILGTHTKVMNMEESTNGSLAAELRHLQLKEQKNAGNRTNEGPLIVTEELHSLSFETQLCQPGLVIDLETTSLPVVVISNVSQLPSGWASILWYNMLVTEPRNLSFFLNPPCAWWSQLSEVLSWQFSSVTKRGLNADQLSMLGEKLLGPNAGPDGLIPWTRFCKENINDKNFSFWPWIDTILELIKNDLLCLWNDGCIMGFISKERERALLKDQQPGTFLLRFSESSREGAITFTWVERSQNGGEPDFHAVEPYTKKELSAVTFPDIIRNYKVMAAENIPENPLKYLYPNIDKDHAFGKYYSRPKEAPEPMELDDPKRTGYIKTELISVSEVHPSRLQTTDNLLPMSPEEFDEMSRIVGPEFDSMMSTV
Description: as §1, §2

naïve CD4+ T cells [2] = assay: In vitro TH-GM (GM-CSF-expressing TH) differentiation from naïve CD4+ T cells; assay type: cell-based, mouse; details: TH-GM cell-favoring condition, inhibitor 3 days
Description: Naïve CD4^+ T cells were primed with plate-bound anti-CD3 and soluble anti-CD28 in the presence of a combination of various cytokines and neutralizing antibodies as indicated. GM-CSF, IL-17 and IFN-γ expression was analyzed by intracellular staining (FIG. 13A) or RT-PCR (FIG. 13B)
GM-CSF and IFN-γ expression in naive CD4^+ T cells activated for 72 h with anti-CD3 alone or plus anti-CD28 (FIG. 14A). In FIG. 14B, sorted naïve CD4^+ T cells were stimulated with anti-CD3 and anti-CD28 in the presence of neutralizing antibodies against IL-12 and IFN-γ without or with the addition of IL-6. The frequencies of GM-CSF^+ and IL-17^+ cells were measured by intracellular staining (FIG. 14B). In FIG. 14C, naïve CD4^+ T cells from Stat3^+/+ and Stat3^−/− mice were polarized under conditions as indicated for 72 h. The frequencies of GM-CSF^+ and IL-17^+ cells were analyzed. In FIG. 14D, naïve CD4^+ T cells were activated with anti-CD3 and anti-CD28 in the presence of IL-2 or anti-IL-2. The frequencies of GM-CSF^+, IL-17^+ and IFN-γ^+ cells were analyzed.
Naïve CD4^+ T cells were primed with plate-bound anti-CD3 and soluble anti-CD28 in the presence of various concentration of IL-7 as indicated. GM-CSF and IFN-γ expression was analyzed by intracellular staining (FIG. 15A) or ELISA (FIG. 15B). In FIGS. 15C and 15D, Stat5^+/+ and Stat5^−/− naïve CD4^+ T cells were activated with anti-CD3 and anti-CD28 in the presence IL-7 for 3 days. GM-CSF, IL-17 and IFN-γ expression was analyzed by intracellular cytokine staining (FIG. 15C). GM-CSF secretion was measured by ELISA (FIG. 15D).

naïve CD4+ T cells [3] = assay: In vitro TH1 differentiation; assay type: cell-based, mouse; details: data not shown
Description: CD4^+ T cells were obtained from spleens and lymph nodes by positive selection and magnetic separation (Miltenyi Biotech), followed by purification of naïve CD4^+ T cell population (CD4^+CD25^−CD62L^hiCD44^lo) sorted with FACS Aria. Naïve CD4^+ T cells were stimulated with plate-bound anti-CD3 (3 μg/ml; BD Pharmingen) and anti-CD28 (1 μg/ml; BD Pharmingen) in presence of different combinations of neutralizing antibodies and cytokines for 3˜4 days: for neutral conditions, no addition of any cytokine or neutralizing antibody; for TH1 conditions, IL-12 (10 ng/ml), and anti-IL-4 (10 μg/ml, BD Pharmingen); for TH17 conditions, hTGF-β (3 ng/ml), IL-6 (20 ng/ml), anti-IFN-γ (10 μg/ml, eBioscience), and anti-IL-4 (10 μg/ml); for an alternative TH17 conditions, IL-6 (20 ng/ml), IL-23 (10 ng/ml), IL-1β (10 ng/ml), anti-IFN-γ (10 μg/ml), and anti-IL-4 (10 μg/ml). For GM-CSF-expressing cell differentiation, naïve CD4^+ T cells were stimulated with plate-bound anti-CD3 (2 μg/ml) and soluble anti-D28 (1 μg/ml) with the addition of IL-7 and/or anti-IFN-γ (10 μg/ml) as indicated. All cytokines were obtained from R&D Systems. […] Cells were acquired on the LSR II (BD Biosciences) and analyzed with FlowJo software (Tree Star). […]

naïve CD4+ T cells [4] = assay: In vitro TH17 differentiation; assay type: cell-based, mouse; details: data not shown
Description: CD4^+ T cells were obtained from spleens and lymph nodes by positive selection and magnetic separation (Miltenyi Biotech), followed by purification of naïve CD4^+ T cell population (CD4^+CD25^−CD62L^hiCD44^lo) sorted with FACS Aria. Naïve CD4^+ T cells were stimulated with plate-bound anti-CD3 (3 μg/ml; BD Pharmingen) and anti-CD28 (1 μg/ml; BD Pharmingen) in presence of different combinations of neutralizing antibodies and cytokines for 3˜4 days: for neutral conditions, no addition of any cytokine or neutralizing antibody; for TH1 conditions, IL-12 (10 ng/ml), and anti-IL-4 (10 μg/ml, BD Pharmingen); for TH17 conditions, hTGF-β (3 ng/ml), IL-6 (20 ng/ml), anti-IFN-γ (10 μg/ml, eBioscience), and anti-IL-4 (10 μg/ml); for an alternative TH17 conditions, IL-6 (20 ng/ml), IL-23 (10 ng/ml), IL-1β (10 ng/ml), anti-IFN-γ (10 μg/ml), and anti-IL-4 (10 μg/ml). […] Cells were acquired on the LSR II (BD Biosciences) and analyzed with FlowJo software (Tree Star).
Stat5 deletion (Cd4-cre; Stat5^f/−) mice was reported to develop peripheral lymphopenia, with a reduction of both CD4^+ and CD8^+ T cells (Yao et al., 2006). […] Furthermore, increased frequencies of IL-17^+ and IFN-γ^+ cells were detected among CD4^+ T cells in spleens of Stat5^−/− mice (FIG. 4C), which further support the idea that the resistance to EAE in Stat5^−/− mice is likely independent of TH1 and TH17 generation. […]

EAE mice = assay: EAE (MOG35-55/CFA) model; assay type: in vivo
Description: (FIG. 23A) Clinical EAE scores of wild-type control mice (n=5) or administrated with STAT5 inhibitor (Calbiochem). Arrow indicates the treatment points. (FIG. 23B) Histology of spinal cords at day 18 of EAE mice receiving different treatments. (FIG. 23C) Intracellular staining and flow cytometry of CNS-infiltrating CD4^+ T cells at peak of disease. (FIG. 23D) Whole CNS was harvest for RNA extraction. GM-CSF mRNA expression was analyzed by RT-PCR. Data represent two independent experiments. *p<0.05.
EAE induction procedures were modified from previous report^3. For active EAE induction, mice were immunized in two sites on the hind flanks with 300 μg MOG35-55 in 100 μl CFA containing 5 mg/ml heat-killed M. tuberculosis strain H37Ra (Difco) at day 0 and day 7. Pertussis toxin (List Bio Lab) was administrated intraperitoneally at the dosage of 500 ng per mouse at day 1 and day 8. For single MOG35-55/CFA immunization, the similar procedure was performed at day 0 and day 1 only. In an alternative active EAE induction, LPS (600 μg/ml in IFA, O111:B4 from Sigma) was used as adjuvant. […] Clinical symptoms were scored as follows: 0, no clinical sign; 1, loss of tail tone; 2, wobbly gait; 3, hind limb paralysis; 4, hind and fore limb paralysis; 5, death. […] For analysis of CNS-infiltrating cells, both spinal cord and brain were collected and minced from perfused mice, and mononuclear cells were isolated by gradient centrifuge with Percoll (GE Healthcare).
To explore the therapeutic effect of targeting STAT5 activation in EAE disease, the commercial STAT5 inhibitor was administered to wild-type mice intraperitoneally every other day after disease onset. Development of paralysis was assessed by daily assignment of clinical scores.

STAT5 [5] = details: Muller et al., 2008; cited from earlier work

O=C(N/N=C/c1coc2ccccc2c1=O)c1cccnc1 [STAT5 inhibitor]
inhibitory effect on STAT5 activation upon IL-7 stimulation (STAT5 [1]; 50 μM): about 50% | inhibitory effect on STAT5 activation upon IL-7 stimulation (STAT5 [1]; FIG. 22A, 22B): low affinity and thus required a high concentration to fully block STAT5 activation | inhibitory effect on STAT3 activation (STAT3): minimal inhibitory effect | inhibitory effect on STAT1 activation (STAT1): minimal inhibitory effect | TH-GM differentiation (naïve CD4+ T cells [2]): suppressed TH-GM differentiation in a dosage-dependent manner | TH1 differentiation (naïve CD4+ T cells [3]): Reduced TH1 differentiation | TH17 differentiation (naïve CD4+ T cells [4]): not suppressed | GM-CSF production in CNS-infiltrating CD4+ T cells (EAE mice; inhibitor-treated EAE mice, peak of disease): reduced GM-CSF production | EAE severity (clinical scores) (EAE mice; wild-type mice, intraperitoneally every other day after disease onset): ameliorated EAE severity | immune cell infiltration in the CNS (EAE mice; wild-type mice, intraperitoneally every other day after disease onset, day 18): reduced immune cell infiltration in the CNS | disruption of tyrosine phosphorylation and DNA binding of STAT5 (STAT5 [5]): selectively disrupt tyrosine phosphorylation and DNA binding of STAT5
